Measured values published in patent US6472418B1, “Non-peptide NK1 receptors antagonists” (Warner-Lambert Company, priority 1998, dated 2002).

target: T1, Human NK1 Receptor (Homo sapiens, UniProt P25103); assay: In Vitro Human NK1 Receptor Binding Assay ([125I]Bolton-Hunter substance P displacement, IM9 cells); settings: Human lymphoma IM9 cells, [125I]Bolton-Hunter substance P (0.05-0.1 nM), 50 min at 21° C.; Table 1; read-out: NK1 binding IC50
T1 construct: endogenous in cells; host or cells: Human lymphoma IM9 cells (whole cells)
Outline: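 Test compounds competed with 0.05-0.1 nM [125I]Bolton-Hunter substance P for binding to intact IM9 cells over 50 min at 21° C, pH 7.4 buffer with MnCl2 and peptidase inhibitors. […] [Sar9, Met(O2)11] substance P gave non-specific binding. Bound counts were measured after filtration and fitted iteratively.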

T1 sequence (P25103 whole entry): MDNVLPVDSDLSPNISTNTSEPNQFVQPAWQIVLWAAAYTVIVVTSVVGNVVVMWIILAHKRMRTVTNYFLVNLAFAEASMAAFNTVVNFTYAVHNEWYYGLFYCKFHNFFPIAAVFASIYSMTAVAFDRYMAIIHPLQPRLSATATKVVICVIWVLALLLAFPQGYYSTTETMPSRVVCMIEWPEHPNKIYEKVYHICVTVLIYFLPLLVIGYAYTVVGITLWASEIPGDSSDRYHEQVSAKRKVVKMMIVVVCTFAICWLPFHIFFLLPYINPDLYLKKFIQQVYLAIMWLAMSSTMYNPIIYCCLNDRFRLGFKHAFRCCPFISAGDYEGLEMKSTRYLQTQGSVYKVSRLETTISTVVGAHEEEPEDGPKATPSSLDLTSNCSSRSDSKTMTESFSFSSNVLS

Row | IC50 | Molecule
1 | 1810 nM | C[C@H](NC(=O)[C@@](C)(Cc1c[nH]c2ccccc12)NCc1ccn[nH]1)c1ccccc1 (relative stereo) [Example 21, 3-(1H-Indol-3-yl)-2-methyl-N-(1-phenyl-ethyl)-2-[(2H-pyrazol-3-ylmethyl)-amino]-propionamide, [R-(R*,S*)]]

same assay, conditions: Human lymphoma IM9 cells, [125I]Bolton-Hunter substance P; Table 3, array-synthesis products; read-out: IC50 (nM) hNK1

Row | IC50 | Molecule
2 | 355 nM | O=C(NCc1cccc(OC(F)(F)F)c1)C(Cc1c[nH]c2ccccc12)NCc1cc2ccccc2o1 (centres unmarked) [Example 200, 2-[(Benzofuran-2-ylmethyl)-amino]-3-(1H-indol-3-yl)-N-(3-trifluoromethoxy-benzyl)-propionamide]
3 | 58 nM | CC(NC(=O)C(Cc1c[nH]c2ccccc12)NCc1cc2ccccc2o1)C1CCCCC1 (centres unmarked) [Example 294, 2-[(Benzofuran-2-ylmethyl)-amino]-N-(1-cyclohexyl-ethyl)-3-(1H-indol-3-yl)-propionamide]
4 | 1340 nM | CC(C)(NC(=O)C(Cc1c[nH]c2ccccc12)NCc1cc2ccccc2o1)C1CCCCC1 (centres unmarked) [Example 225, 2-[(Benzofuran-2-ylmethyl)-amino]-N-(1-cyclohexyl-1-methyl-ethyl)-3-(1H-indol-3-yl)-propionamide]
5 | 82 nM | O=C(NCc1cccc(C(F)(F)F)c1)C(Cc1c[nH]c2ccccc12)NCc1cc2ccccc2o1 (centres unmarked) [Example 228, 2-[(Benzofuran-2-ylmethyl)-amino]-3-(1H-indol-3-yl)-N-(3-trifluoromethyl-benzyl)-propionamide]
6 | 2320 nM | O=C(NCc1cnc2ccccc2c1)C(Cc1c[nH]c2ccccc12)NCc1cc2ccccc2o1 (centres unmarked) [Example 205, 2-[(Benzofuran-2-ylmethyl)-amino]-3-(1H-indol-3-yl)-N-quinolin-3-ylmethyl-propionamide]
7 | 1980 nM | O=C(NCc1ccccn1)C(Cc1c[nH]c2ccccc12)NCc1cc2ccccc2o1 (centres unmarked) [Example 192, 2-[(Benzofuran-2-ylmethyl)-amino]-3-(1H-indol-3-yl)-N-pyridin-2-ylmethyl-propionamide]

same assay, conditions: Table 4; [125I]Bolton-Hunter substance P displacement, human IM9 cells; read-out: IC50 (nM) hNK1

Row | IC50 | Molecule
8 | > 10000 nM | CCCCCC(=Cc1ccccc1)CNC(C)(Cc1c[nH]c2ccccc12)C(=O)NC(C)c1ccccc1 (centres unmarked) [compound 356, 3-(1H-Indol-3-yl)-2-methyl-2-(2-pentyl-3-phenyl-allylamino)-N-(1-phenyl-ethyl)-propionamide]
9 | > 10000 nM | CC(NC(=O)C(C)(Cc1c[nH]c2ccccc12)NCc1ccc(C=Cc2ccccc2)cc1)c1ccccc1 (centres unmarked) [compound 351, 3-(1H-Indol-3-yl)-2-methyl-N-(1-phenyl-ethyl)-2-(4-styryl-benzylamino)-propionamide]
10 | 3710 nM | CC(NC(=O)C(C)(Cc1c[nH]c2ccccc12)NCc1ccncc1)c1ccccc1 (centres unmarked) [compound 359, 3-(1H-Indol-3-yl)-2-methyl-N-(1-phenyl-ethyl)-2-[(pyridin-4-ylmethyl)-amino]-propionamide]
11 | 4190 nM | CCOC(=O)Nc1ccccc1CNC(C)(Cc1c[nH]c2ccccc12)C(=O)NC(C)c1ccccc1 (centres unmarked) [compound 329, (2-{[2-(1H-Indol-3-yl)-1-methyl-1-(1-phenyl-ethylcarbamoyl)-ethylamino]-methyl}-phenyl)-carbamic acid ethyl ester]

Row | Molecule | IC50
12 | 3-(1H-Indol-3-yl)-2-methyl-N-(1-phenyl-ethyl)-2-[4-(2-pyrrolidin-1-yl-ethoxy)-benzylamino]-propionamide [compound 335] | > 10000 nM
13 | 4-{[2-(1H-Indol-3-yl)-1-methyl-1-(1-phenyl-ethylcarbamoyl)-ethylamino]-methyl}-benzoic acid methyl ester [compound 337] | 1920 nM

same assay, conditions: Table 5; [125I]Bolton-Hunter substance P displacement, human IM9 cells; read-out: IC50 (nM) hNK1

Row | IC50 | Molecule
14 | 500 nM | CC(NC(=O)C(Cc1c[nH]c2ccccc12)NCCCc1cccc2ccccc12)c1ccccc1 (centres unmarked) [compound 380]
15 | > 10000 nM | CC(NC(=O)C(Cc1c[nH]c2ccccc12)NCc1cccc(OCc2ccccc2)c1)c1ccccc1 (centres unmarked) [compound 382]
16 | > 10000 nM | CC(NC(=O)C(Cc1c[nH]c2ccccc12)NCc1ccc(C=Cc2ccccc2)o1)c1ccccc1 (centres unmarked) [compound 362]
17 | 13 nM | CC(NC(=O)C(Cc1c[nH]c2ccccc12)NCc1cccc(Cl)c1)c1ccccc1 (centres unmarked) [compound 400]
18 | 802 nM | CC(NC(=O)C(Cc1c[nH]c2ccccc12)NCc1cccnc1)c1ccccc1 (centres unmarked) [compound 393]

same assay, conditions: human NK1 receptor, IM9 cells, [125I]Bolton-Hunter substance P; read-out: IC50 (nM) hNK1

Row | Molecule | IC50
19 | CC1(CNC(=O)C(C)(Cc2c[nH]c3ccccc23)NCc2cc3ccccc3o2)CCCO1 (centres unmarked) [compound 136, 2-[(Benzofuran-2-ylmethyl)-amino]-3-(1H-indol-3-yl)-2-methyl-N-(2-methyl-tetrahydro-furan-2-ylmethyl)-propionamide] | > 10000 nM
20 | CC(Cc1c[nH]c2ccccc12)(NCc1cc2ccccc2o1)C(=O)NCC(C)(C)N1CCCCC1 (centres unmarked) [compound 131, 2-[(Benzofuran-2-ylmethyl)-amino]-3-(1H-indol-3-yl)-2-methyl-N-(2-methyl-2-piperidin-1-yl-propyl)-propionamide] | > 10000 nM

Other lines, results leading:

Row | IC50 | Molecule
21 | 7620 nM | CC(Cc1c[nH]c2ccccc12)(NCc1cc2ccccc2o1)C(=O)NCCc1ccc(S(N)(=O)=O)cc1 (centres unmarked) [compound 47, 2-[(Benzofuran-2-ylmethyl)-amino]-3-(1H-indol-3-yl)-2-methyl-N-[2-(4-sulfamoyl-phenyl)-ethyl]-propionamide]
22 | 3540 nM | CC(Cc1c[nH]c2ccccc12)(NCc1cc2ccccc2o1)C(=O)NCc1c(F)cccc1F (centres unmarked) [compound 190, 2-[(Benzofuran-2-ylmethyl)-amino]-N-(2,6-difluoro-benzyl)-3-(1H-indol-3-yl)-2-methyl-propionamide]
23 | 61 nM | CC(Cc1c[nH]c2ccccc12)(NCc1cc2ccccc2o1)C(=O)NCc1ccc(F)cc1 (centres unmarked) [compound 61, 2-[(Benzofuran-2-ylmethyl)-amino]-N-(4-fluoro-benzyl)-3-(1H-indol-3-yl)-2-methyl-propionamide]
24 | 5370 nM | CC(Cc1c[nH]c2ccccc12)(NCc1cc2ccccc2o1)C(=O)NCCCn1ccnc1 (centres unmarked) [compound 134, 2-[(Benzofuran-2-ylmethyl)-amino]-N-(3-imidazol-1-yl-propyl)-3-(1H-indol-3-yl)-2-methyl-propionamide]
25 | 154 nM | CC(Cc1c[nH]c2ccccc12)(NCc1cc2ccccc2o1)C(=O)NCCc1ccco1 (centres unmarked) [compound 115, 2-[(Benzofuran-2-ylmethyl)-amino]-N-(2-furan-2-yl-ethyl)-3-(1H-indol-3-yl)-2-methyl-propionamide]
26 | 144 nM | Cc1ccc(CNC(=O)C(C)(Cc2c[nH]c3ccccc23)NCc2cc3ccccc3o2)cc1 (centres unmarked) [compound 71, 2-[(Benzofuran-2-ylmethyl)-amino]-3-(1H-indol-3-yl)-2-methyl-N-(4-methyl-benzyl)-propionamide]
27 | 17 nM | CC(NC(=O)C(C)(Cc1c[nH]c2ccccc12)NCc1cc2ccccc2o1)c1ccc(Cl)cc1 (centres unmarked) [compound 30, 2-[(Benzofuran-2-ylmethyl)-amino]-N-[1-(4-chloro-phenyl)-ethyl]-3-(1H-indol-3-yl)-2-methyl-propionamide]
28 | 863 nM | CC(NC(=O)C(C)(Cc1c[nH]c2ccccc12)NCc1cc2ccccc2o1)c1ccc(N(C)C)cc1 (centres unmarked) [compound 39, 2-[(Benzofuran-2-ylmethyl)-amino]-N-[1-(4-dimethylamino-phenyl)-ethyl]-3-(1H-indol-3-yl)-2-methyl-propionamide]
29 | 4630 nM | CN1Cc2ccccc2CC1CNC(=O)C(C)(Cc1c[nH]c2ccccc12)NCc1cc2ccccc2o1 (centres unmarked) [compound 106, 2-[(Benzofuran-2-ylmethyl)-amino]-3-(1H-indol-3-yl)-2-methyl-N-(2-methyl-1,2,3,4-tetrahydro-isoquinolin-3-ylmethyl)-propionamide]
